Results published in patent US20100267819A1, “PHARMACEUTICAL COMPOSITION FOR DIABETIC NEPHROPATHY AND ITS PREPARATION AND APPLICATION” (Guangzhou Consun Medicine R&D Medicine, priority 2009, published 2010).

Legend:
db|db mouse [1] = experiment: Urine volume, urine total protein and urine creatinine in 24 hours of db|db mouse in diabetic nephropathy; format: in vivo; conditions: for Total protein / Urine creatinine / Urine volume: 24 hour urine after 5 weeks
Method: (§1) During the experiment, all the mouse are bred in lamina flow cage, free to food and water. Water and underpad are changed every day to keep the cage clean, and the water, seedstuff, underpad are stationary. […] All the appliances and food are sterilized everyday. […] Moreover, 10 8-week-old B6 mouse are taken as the normal control. Each group is given 0.4 ml corresponding drug in different concertration or physiological saline by intragastric administration for 5 weeks. Determinate the food-intake and water-intake, weigh every week, determinate the blood glucose every week.

CTGF = CTGF express of rat mesangial cells cultured under high glucose (immunocytochemistry); format: cell-based; conditions: high glucose 25 mmol/L, 48 h, CTGF staining; extract 0.1 g/L, compounds 1, 0.1, 0.01 μmol/L, co-use 0.06:0.03, 0.05:0.05, 0.03:0.06 μmol/L
Method: Take the rat mesangial cells in log phase growth, prepare into unicell suspension (5×10^4 cells/ml) with 5% DMEM medium of newborn calf serum, inoculate to the 24 well plate coated with coverslip for 1 ml/well (cell quantity: 5×10^4/well), incubated under 5% CO2 incubator at 37° C. for 24 hours, added the DMEM medium without serum, incubated 24 hours to make all the cells to anestrum. Discard the supernatant, added 900 μl DMEM medium and 100 μl different concentration amylaceum (each concentration for 3 repeat) and incubated 24 h, 48 h, 72 h and 96 h, respectively. Observed the modeling results after staining with HE and PAS. […] Put the coverslips pre-treatment by poly-L-lysine into 24-well cell culture plates before added the unicell suspension, then cultured these cells until the step of synchronization. […] Each group repeats for 3 times. Then, all the groups are incubated under 5% CO2 incubator at 37° C. for 48 h. After that, take out of the coverslips for HE staining, PAS staining and immunocytochemistry staining […]

db|db mouse [2] = experiment: Blood glucose of db|db mouse in diabetic nephropathy; format: in vivo; conditions: for Blood glucose value: db|db mouse
Method: as §1

db|db mouse [3] = experiment: Kidney weight and kidney index of db|db mouse in diabetic nephropathy; format: in vivo; conditions: after 5 weeks; for Kidned index: kidney weight/body weight×1000
Method: as §1

[4] = system: Rat messangial cell cell line HBZY-1; experiment: Hypertrophy of rat mesangial cells cultured under high glucose (HE staining); format: cell-based; conditions: high glucose 25 mmol/L, 48 h, extract 0.1 g/L, compounds 1, 0.1, 0.01 μmol/L, co-use 0.06:0.03, 0.05:0.05, 0.03:0.06 μmol/L
Method: (§2) Take the rat mesangial cells in log phase growth, prepare into unicell suspension (5×10^4 cells/ml) with 5% DMEM medium of newborn calf serum, inoculate to the 24 well plate coated with coverslip for 1 ml/well (cell quantity: 5×10^4/well), incubated under 5% CO2 incubator at 37° C. for 24 hours, added the DMEM medium without serum, incubated 24 hours to make all the cells to anestrum. Discard the supernatant, added 900 μl DMEM medium and 100 μl different concentration amylaceum (each concentration for 3 repeat) and incubated 24 h, 48 h, 72 h and 96 h, respectively. Observed the modeling results after staining with HE and PAS. […] Put the coverslips pre-treatment by poly-L-lysine into 24-well cell culture plates before added the unicell suspension, then cultured these cells until the step of synchronization. […] Each group repeats for 3 times. Then, all the groups are incubated under 5% CO2 incubator at 37° C. for 48 h. After that, take out of the coverslips for HE staining, PAS staining and immunocytochemistry staining Routine HE Staining, Routine PAS Staining, CTGF Staining

[5] = system: Rat messangial cell cell line HBZY-1; experiment: Extracellular matrix accrementition of rat mesangial cells cultured under high glucose (PAS staining); format: cell-based; conditions: high glucose 25 mmol/L, 48 h, extract 0.1 g/L, compounds 1, 0.1, 0.01 μmol/L, co-use 0.06:0.03, 0.05:0.05, 0.03:0.06 μmol/L
Method: as §2

db|db mouse [6] = experiment: Weight of db|db mouse of diabetic nephropathy; format: in vivo; conditions: for Weight: db|db mouse
Method: as §1

[7] = 2 weeks, 0.5 mg/kg intragastric
[8] = 2 weeks, 1.0 mg/kg intragastric
[9] = 2 weeks, 2.0 mg/kg intragastric
[10] = 3 weeks, 0.5 mg/kg intragastric
[11] = 3 weeks, 1.0 mg/kg intragastric
[12] = 3 weeks, 2.0 mg/kg intragastric
[13] = 4 weeks, 0.5 mg/kg intragastric
[14] = 4 weeks, 1.0 mg/kg intragastric
[15] = 4 weeks, 2.0 mg/kg intragastric
[16] = 5 weeks, 0.5 mg/kg intragastric
[17] = 5 weeks, 1.0 mg/kg intragastric
[18] = 5 weeks, 2.0 mg/kg intragastric

COc1cc2ccc(=O)oc2cc1O [7-hydroxy-6-methoxycomarin, 7-hydroxy-6-methoxycoumarin]
Total protein (db|db mouse [1]; 0.5 mg/kg intragastric): 1.398 ± 0.372 mg | Urine creatinine (db|db mouse [1]; 0.5 mg/kg intragastric): 1.85 ± 0.56 mmol/L | Urine volume (db|db mouse [1]; 0.5 mg/kg intragastric): 0.95 ± 0.34 mL | Total protein (db|db mouse [1]; 1.0 mg/kg intragastric): 1.102 ± 0.249 mg | Urine creatinine (db|db mouse [1]; 1.0 mg/kg intragastric): 3.20 ± 0.85 mmol/L | Urine volume (db|db mouse [1]; 1.0 mg/kg intragastric): 0.75 ± 0.25 mL | Total protein (db|db mouse [1]; 2.0 mg/kg intragastric): 0.878 ± 0.352 mg | Urine creatinine (db|db mouse [1]; 2.0 mg/kg intragastric): 2.81 ± 0.76 mmol/L | Urine volume (db|db mouse [1]; 2.0 mg/kg intragastric): 0.78 ± 0.31 mL | urine creatinine in 24 hours (db|db mouse [1]; vs model group): elevate the urine creatinine | urine total protein in 24 hours (db|db mouse [1]; vs model group): decrease | urine volume in 24 hours (db|db mouse [1]; vs model group): decrease the urine volume | CTGF express of rat mesangial cells induced by high glucose (CTGF): decrease the CTGF express | Blood glucose value (db|db mouse [2]; 1 week, 0.5 mg/kg intragastric): 13.3 ± 4.5 mmol/L | Blood glucose value (db|db mouse [2]; 1 week, 1.0 mg/kg intragastric): 13.5 ± 4.0 mmol/L | Blood glucose value (db|db mouse [2]; 1 week, 2.0 mg/kg intragastric): 13.8 ± 4.7 mmol/L | Blood glucose value (db|db mouse [2]; [7]): 13.4 ± 2.7 mmol/L | Blood glucose value (db|db mouse [2]; [8]): 13.0 ± 3.2 mmol/L | Blood glucose value (db|db mouse [2]; [9]): 13.3 ± 2.7 mmol/L | Blood glucose value (db|db mouse [2]; [10]): 13.5 ± 3.2 mmol/L | Blood glucose value (db|db mouse [2]; [11]): 12.6 ± 4.8 mmol/L | Blood glucose value (db|db mouse [2]; [12]): 13.1 ± 4.7 mmol/L | Blood glucose value (db|db mouse [2]; [13]): 12.1 ± 3.6 mmol/L | Blood glucose value (db|db mouse [2]; [14]): 10.8 ± 2.5 mmol/L | Blood glucose value (db|db mouse [2]; [15]): 10.4 ± 3.9 mmol/L | Blood glucose value (db|db mouse [2]; [16]): 13.0 ± 2.2 mmol/L | Blood glucose value (db|db mouse [2]; [17]): 10.4 ± 2.5 mmol/L | Blood glucose value (db|db mouse [2]; [18]): 11.3 ± 4.4 mmol/L | blood glucose of db|db mouse (db|db mouse [2]; final phase of administration, vs model group, P<0.05): remarkably decrease the blood glucose | kidney index (db|db mouse [3]): obviously decrease | kidney weight (db|db mouse [3]): obviously decrease | Kidned weight (db|db mouse [3]; 0.5 mg/kg intragastric): 0.29 ± 0.02 g | Kidned index (db|db mouse [3]; 0.5 mg/kg intragastric): 12.6 ± 1.0 ‰ | Kidned weight (db|db mouse [3]; 1.0 mg/kg intragastric): 0.25 ± 0.03 g | Kidned weight (db|db mouse [3]; 2.0 mg/kg intragastric): 0.24 ± 0.04 g | Kidned index (db|db mouse [3]; 2.0 mg/kg intragastric): 9.1 ± 1.7 ‰ | hypertrophy of rat mesangial cells induced by high glucose [4]: restrain significantly the hypertrophy | extracellular matrix of rat mesangial cells induced by high glucose [5]: decrease the extracellular matrix | Weight (db|db mouse [6]; 0 week, 0.5 mg/kg intragastric): 23.2 ± 0.6 g | Weight (db|db mouse [6]; 0 week, 1.0 mg/kg intragastric): 24.1 ± 0.5 g | Weight (db|db mouse [6]; 0 week, 2.0 mg/kg intragastric): 23.9 ± 0.5 g | Weight (db|db mouse [6]; 1 week, 0.5 mg/kg intragastric): 30.6 ± 1.2 g | Weight (db|db mouse [6]; 1 week, 1.0 mg/kg intragastric): 31.8 ± 1.0 g | Weight (db|db mouse [6]; 1 week, 2.0 mg/kg intragastric): 32.0 ± 1.3 g | Weight (db|db mouse [6]; [7]): 36.4 ± 1.5 g | Weight (db|db mouse [6]; [8]): 33.7 ± 1.4 g | Weight (db|db mouse [6]; [9]): 34.3 ± 1.9 g | Weight (db|db mouse [6]; [10]): 40.1 ± 2.5 g | Weight (db|db mouse [6]; [11]): 38.8 ± 1.4 g | Weight (db|db mouse [6]; [12]): 39.5 ± 1.8 g | Weight (db|db mouse [6]; [13]): 43.0 ± 2.1 g | Weight (db|db mouse [6]; [14]): 42.5 ± 2.5 g | Weight (db|db mouse [6]; [15]): 44.0 ± 3.2 g | Weight (db|db mouse [6]; [16]): 47.0 ± 3.9 g | Weight (db|db mouse [6]; [17]): 45.8 ± 3.0 g | Weight (db|db mouse [6]; [18]): 45.7 ± 4.5 g | weight of db|db mouse (db|db mouse [6]; vs model group, P<0.05, intragastric, 5 weeks): restrain the weight
